The values that follow come from patent publication US20260262643A1, “HERBICIDAL BENZOXAZINES” (FMC CORPORATION, priority 2022, published 2026).

Test [1] relates to green foxtail. Put plainly: Test C preemergence. The class given is in vivo, Setaria viridis. An outline of the steps:
(§1)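 Pre: seeds in loam/sand, directed soil spray. Post: 1–2 leaf plants, 2–10 cm. Cmpd in non-phytotoxic solvent + surfactant. Greenhouse 10 d; visual rating vs untreated, 0 = none, 100 = complete control.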

Test [2] deals with kochia. As to the kind of experiment: Test C preemergence. Type of test: in vivo, Bassia scoparia. Summed up: as §1
For test [3], the system named is oat, wild. Put plainly: Test C preemergence. Type of test: in vivo, Avena fatua. An outline of the steps:
as §1

Another test relates to sedge, umbrella. As to the kind of experiment: Test D flooded paddy test. The class given is in vivo, Cyperus difformis. The note with it: 250 g ai/ha, applied to paddy water, visual rating after 13 to 14 days, scale 0 to 100 (0 no effect, 100 complete control). An outline of the steps: (§2)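 At the 2-leaf stage, floodwater 3 cm deep received the test compound; that depth persisted throughout. Plants scored visually 13 to 14 days on, 0 (no effect) to 100 (complete control), dash indicating no result.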

Test [4] concerns corn. Put plainly: Test C postemergence. The class given is in vivo, Zea mays. The note with it: 500 g ai/ha, 10 days. An outline of the steps:
as §1

The subject of the next test is ducksalad. As to the kind of experiment: Test D flooded paddy test. Type of test: in vivo, Heteranthera limosa. The note with it: 250 g ai/ha, applied to paddy water, visual rating after 13 to 14 days, scale 0 to 100 (0 no effect, 100 complete control). Summed up: as §2
Another test deals with rice. As to the kind of experiment: Test D flooded paddy test. To be noted: 250 g ai/ha, applied to paddy water, visual rating after 13 to 14 days, scale 0 to 100 (0 no effect, 100 complete control). The class given is in vivo, Oryza sativa. An outline of the steps: as §2
Test [5] relates to blackgrass. As to the kind of experiment: Test C preemergence. The class given is in vivo, Alopecurus myosuroides. The note with it: Preemergence. Summed up:
as §1

In another test the test system is soybean. Put plainly: Test C preemergence. The class given is in vivo, Glycine max. An outline of the steps: as §1
For test [6], the system named is corn. As to the kind of experiment: Test C preemergence. The class given is in vivo, Zea mays. An outline of the steps: as §1
Test [7] has as its system green foxtail. Put plainly: Test C postemergence. The note with it: 500 g ai/ha, 10 days. The class given is in vivo, Setaria viridis. Summed up:
as §1

The subject of another test is ragweed. Put plainly: Test C preemergence. Type of test: in vivo, Ambrosia artemisiifolia. An outline of the steps: as §1
The subject of test [8] is blackgrass. Put plainly: Test C postemergence. To be noted: 500 g ai/ha, 10 days. Type of test: in vivo, Alopecurus myosuroides. Summed up: as §1
The subject of a further test is horseweed. As to the kind of experiment: Test C postemergence. The class given is in vivo, Erigeron canadensis. To be noted: 500 g ai/ha, 10 days. Summed up:
as §1

The subject of another test is wheat. As to the kind of experiment: Test C preemergence. Type of test: in vivo, Triticum aestivum. An outline of the steps: as §1
The test system of the next test is galium. As to the kind of experiment: Test C postemergence. Type of test: in vivo, Galium aparine. The note with it: Postemergence, 500 g ai/ha, 10 days, visual 0 to 100 scale (0 no effect, 100 complete control). An outline of the steps: as §1
Test [9] concerns barnyardgrass. As to the kind of experiment: Test D flooded paddy test. The note with it: 250 g ai/ha, applied to paddy water, visual rating after 13 to 14 days, scale 0 to 100 (0 no effect, 100 complete control). Type of test: in vivo, Echinochloa crus-galli. An outline of the steps:
as §2

In test [10] the test system is barnyardgrass. Put plainly: Test C postemergence. Type of test: in vivo, Echinochloa crusgalli. To be noted: 500 g ai/ha, 10 days. Summed up:
as §1

Another test concerns ryegrass, Italian. Put plainly: Test C preemergence. Type of test: in vivo, Lolium multiflorum. Summed up:
as §1

Test [11] concerns barnyardgrass. As to the kind of experiment: Test C preemergence. Type of test: in vivo, Echinochloa crusgalli. To be noted: Preemergence. Summed up:
as §1

Test [12] has as its system pigweed, palmer. As to the kind of experiment: Test C preemergence. The class given is in vivo, Amaranthus palmeri. Summed up: as §1
Test [13] concerns pigweed, palmer. As to the kind of experiment: Test C postemergence. The note with it: 500 g ai/ha, postemergence, 10 days, 0 to 100 scale (0 no effect, 100 complete control). The class given is in vivo, Amaranthus palmeri. An outline of the steps:
as §1

For test [14], the system named is oat, wild. As to the kind of experiment: Test C postemergence. The class given is in vivo, Avena fatua. To be noted: 500 g ai/ha, postemergence, 10 days, 0 to 100 scale (0 no effect, 100 complete control). An outline of the steps:
as §1

Test [15] has as its system kochia. Put plainly: Test C postemergence. Type of test: in vivo, Bassia scoparia. To be noted: 500 g ai/ha, postemergence, 10 days, 0 to 100 scale (0 no effect, 100 complete control). Summed up:
as §1

Setting [16] is: 500 g ai/ha, preemergence, 0 to 100 scale (0 no effect, 100 complete control).
Where [17] appears, read: 500 g ai/ha, visual rating after 10 days, 0 to 100 scale (0 no effect, 100 complete control).
The mark [18] stands for this setting: Postemergence, visual 0 to 100 scale (0 no effect, 100 complete control).
Where [19] appears, read: Preemergence, 125 g ai/ha, 0 to 100 scale, 0 no effect, 100 complete control.
[20] abbreviates: postemergence, 0 to 100 scale (0 no effect, 100 complete control).
Where [21] appears, read: 125 g ai/ha, 0 to 100 scale, 0 no effect, 100 complete control.

As for `CC(C)c1ncn(-c2cc(O)c(O)c(C(=O)N3C[C@H](C)Oc4c(Cl)cccc43)c2)n1` [Compound 272, [(2S)-8-chloro-2-methyl-2,3-dihydro-1,4-benzoxazin-4-yl]-[2,3-dihydroxy-5-(3-isopropyl-1,2,4-triazol-1-yl)phenyl]methanone], the “Foxtail, Green plant response rating” value in the test on green foxtail [1] (setting [16]) stood at 0. Further, in the test with kochia [2] (setting [16]), the “Kochia plant response rating” value came to 0. In addition, the “Oat, Wild plant response rating” value in the test with oat, wild [3] (setting [16]) is 0. Besides, the “Plant response rating, Sedge, Umbrella (Flood)” value in the test with sedge, umbrella is recorded as 0. This molecule gave a Corn plant response rating (crop injury, 0 = no effect, 100 = complete kill) at 500 g/ha in the test with corn [4] (Zea mays, post-emergence, 240 h, Postemergence, visual 0 to 100 scale (0 no effect, 100 complete control)) of 0%. For the same molecule, the “Plant response rating, Ducksalad (Flood)” value with ducksalad was determined as 0. Further, the “Plant response rating, Rice (Flood)” value in the test with rice amounted to 0. Further, in the test with blackgrass [5] (setting [17]), the “Plant response rating, Blackgrass” value was 0. Besides, the “Soybean plant response rating” value in the test with soybean (setting [16]) worked out at 0. In addition, the “Corn plant response rating” value with corn [6] (setting [16]) is listed as 0. In the test with green foxtail [7] (setting [18]), the “Plant response rating, Foxtail, Green” value is on record as 0. Besides, the “Ragweed plant response rating” value with ragweed (setting [16]) is given as 30. In the test with blackgrass [8] (Alopecurus myosuroides, post-emergence, 240 h, Postemergence, visual 0 to 100 scale (0 no effect, 100 complete control), read-out: Plant response rating, Blackgrass), the pest or weed control at 500 g/ha stood at 0%. In addition, the “Plant response rating, Horseweed” value with horseweed (setting [18]) amounted to 10. In addition, the “Wheat plant response rating” value in the test on wheat (setting [16]) is listed as 0. For the same molecule, in the test with galium, the “Plant response rating, Galium” value turned out to be 0. The “Plant response rating, Barnyardgrass (Flood)” value in the test with barnyardgrass [9] is listed as 0. The “Plant response rating, Barnyardgrass” value with barnyardgrass [10] (setting [18]) and in the test on barnyardgrass [11] (setting [17]) was 0 each time. Besides, the “Ryegrass, Italian plant response rating” value in the test with ryegrass, Italian (setting [16]) is recorded as 0. Also, the “Pigweed, Palmer plant response rating” value in the test on pigweed, palmer [12] (setting [16]) was 90.

With `CCOC[C@H]1CN(C(=O)c2cc(-n3cnc(C(C)C)n3)cc3c2OCO3)c2cccc(Cl)c2O1` [Compound 400], the figures for the “Plant response rating, Foxtail, Green” value with green foxtail [1] (setting [19]) and in the test on green foxtail [7] (setting [20]) were 70 and 40, respectively. Further, the “Plant response rating, Kochia” value in the test with kochia [2] (setting [19]) was 50; with kochia [15], 90. Further, the “Plant response rating, Oat, Wild” value with oat, wild [3] (setting [19]) worked out at 0; in the test with oat, wild [14], 20. Moreover, in the test on sedge, umbrella, the “Plant response rating, Sedge, Umbrella (Flood)” value came out at 40. Further, the “Plant response rating, Corn” value was determined as 50 in the test with corn [4] (setting [20]) and 0 with corn [6] (setting [19]). Moreover, the “Plant response rating, Ducksalad (Flood)” value in the test with ducksalad came to 45. The “Plant response rating, Rice (Flood)” value in the test with rice is on record as 0. Also, the “Plant response rating, Blackgrass” value was 0 in the test with blackgrass [5] (setting [21]) and 70 in the test on blackgrass [8] (setting [20]). Also, the “Plant response rating, Soybean” value with soybean (setting [19]) worked out at 20. The “Plant response rating, Pigweed, Palmer” value stood at 100 in the test on pigweed, palmer [13] and 100 in the test with pigweed, palmer [12] (setting [19]). Further, the “Plant response rating, Ragweed” value in the test on ragweed (setting [19]) is listed as 30. In addition, the “Plant response rating, Horseweed” value in the test on horseweed (setting [20]) is reported as 20. The “Plant response rating, Wheat” value in the test with wheat (setting [19]) was determined as 0. The “Plant response rating, Barnyardgrass (Flood)” value with barnyardgrass [9] was 15. The “Plant response rating, Barnyardgrass” value in the test on barnyardgrass [10] (setting [20]) and in the test with barnyardgrass [11] (setting [21]) was 50 throughout. For the same molecule, the “Plant response rating, Ryegrass, Italian” value in the test with ryegrass, Italian (setting [19]) was 60.
